# How the values were obtained:
# [1] = Fractional extraction of chlorophyll a from ethanol extract into oil layer (HPLC); assay type: physicochemical; conditions: oil added 1:1 (50 ml) to ethanol extract of wheatgrass powder, stirred, layers separated for 2 minutes
# Experimental: (§1) In order to analyze the content of extracted chlorophyll, high-performance liquid chromatography (HPLC) was used. Purification was performed using the Agilent 1100 Series HPLC system from AGILENT, and the column used was Shimadzu Shim-pack C18 analytical column (250 mm×4.6 mm, 5 μm, 100). The peak was detected as ultraviolet ray absorption using a diode array detector. The injection volume was […], and the flow rate was […].
# (§2) The reference material for chlorophyll a was purchased from Aldrich Chemical Co. (Milwaukee, Wis.), and was used without a further purification process.
# [2] = Storage stability test of chlorophyll a in stabilization candidate oils (HPLC content); conditions: chlorophyll a in the oil layer, room temperature storage, dark place
# Experimental: as §1, §2
# The storage stability of chlorophyll a stabilization candidate materials used in the above process for chlorophyll-a was tested. Samples were collected for each storage period at various temperatures, and the content of chlorophyll a was analyzed using the HPLC system described above.
# Temperatures for the test were respectively freezing temperature (−20° C.), refrigerating temperature (4° C.), room temperature (25° C.), high temperature (50° C.), and being left at room temperature.
# In this process, ethanol was removed. Thereafter, the obtained was stored for a predetermined period in a dark place for each temperature to collect samples for each storage period, and then the content of chlorophyll a was analyzed using the HPLC system described above.
compound,measurement,setting,value
CC(C)=CCC/C(C)=C/CC/C(C)=C/CC/C=C(\C)CC/C=C(\C)CCC=C(C)C [squalene],chlorophyll a moved to / dissolved in the oil phase,[1],more than 80%
same,half-life of chlorophyll a,[2],7 months
